Data reported in patent EP0961591B1, “METHOD TO ENHANCE TISSUE AC[…] RADIOLABELED COMPOUNDS” (BOARD OF SUPERVISORS OF LOUISIANA STATE UNIVERSITY AND …, priority 1997, dated 1999).
Bridges are numbered along the chain shown (N, C = ends). Where no end group is shown, it is not given here. [ ]: non-standard residue; d: D form.

Columns and labels:
[1] = tested on: Human placental-derived vascular endothelial cells; assay: Binding and internalization in angiogenic vascular endothelial cells; details: acid wash
Description: Human placental-derived vascular endothelial cells were used to assay for cell binding of the somatostatin analog, ^125I-JIC-2D. The radioligand, a somatostatin analog, ^125I-JIC-2D, was made by solid phase peptide synthesis as described in U.S. Patent No. 5,597,894. This peptide has an amino acid sequence of the following: D-Lys-D-Tyr-D-Lys-D-Tyr-D-Lys-c[Cys-Phe-D-Trp-Lys-Thr-Cys]-Thr-NH2. The cells were obtained by growing discs of human placental veins in fibrinclots for 14 days. […] These discs and their angiogenic sprouts are harvested mechanically and dissociated by vortexing. The vein discs are then discarded and the endothelial cells pooled. Cells were harvested, counted with a hemocytometer, and resuspended in binding buffer (Minimum Essential Medium (MEM), 10 mM Hepes, 0.01 % BSA). A standard assay used 500,000 cells in 1 ml of binding buffer. […] At the termination of the experiment, the incubation medium was removed, the cells were rinsed twice with Hanks balanced salt solution (HBSS), and the radioactivity in the cells determined using a gamma counter. This level of radioactivity represents total binding, which includes both membrane-bound and internalized fractions. Specific binding was determined by calculating the difference in the levels of measured radioactivity without the unlabeled competitor minus the radioactivity with the unlabeled competitor. […]

IMR-32 cells = assay: Nuclear translocation (Percoll density gradient fractionation); format: cell-based, human
Description: The cells were washed twice in media at 4°C and resuspended in cold isotonic sucrose. The labeled cells were passed through a ball-bearing homogenizer three times to disrupt cell membranes while leaving approximately 95% of the cell nuclei intact, according to the method of Balch et al., Arch. Biochem. Biophys., vol. 240, p. […] The cell homogenate was mixed with Percoll to give a final concentration of […] Percoll and spun at 20,400 rpm in a Beckman 40.2 rotor for 45 min to generate a density gradient. Density marker beads (Pharmacia) were used to indicate density levels in the tube. The contents of the tube were fractionated in an ISCO Density Gradient Fractionator. The resulting tubes were assayed for content of radiolabeled somatostatin or analogs, DNA to indicate nuclei, protein, the plasma membrane marker 5'-nucleotidase, and the lysosome marker N-acetylglucosaminidase. The usual assumption was made that the radioactivity measured in fractions rich in a certain cell component was in fact associated with that component; e.g., the radioactivity measured in a fraction rich in plasma membrane was due to association of the radiolabeled compound with the plasma membrane.
The density distribution is represented by the triangles in the figures. Nuclear fractions were found in the density gradient represented by Tubes 12-15, and membrane fractions by Tubes 0-6. […] Radiodecaying nuclei will then ionize DNA, resulting in cellular damage.

| Substance | binding and internalization [1] | cellular distribution (membrane vs nuclear fractions) (IMR-32 cells; 1 hr) | cellular distribution (membrane vs nuclear fractions) (IMR-32 cells; 4 hr) | cellular distribution (membrane vs nuclear fractions) (IMR-32 cells; 24 hr) |
| --- | --- | --- | --- | --- |
| [dK][dY][dK][dY][dK]CF[dW]KTCT-NH2 (disulfide 6-11) [^125I-JIC-2D] | the vast majority of the radioligand was internalized into the cell |  |  |  |
| ^125I-somatostatin: radiolabeled native somatostatin (AGCKNFFWKTFTSC; disulfide 3-14 (inferred); ends not checked; also: 125I label, position not given here; UniProt P61278 103-116, looked up) |  | both membrane binding and small amounts of nuclear binding | the plasma membrane binding appeared to have peaked and the nuclear fraction was dissipating | essentially no plasma membrane or nuclear binding was seen |
